Where “and” joins values, the source holds several entries; their conditions need not be identical. Equal values may be shown once.
Settings: Fluid (supercritical or subcritical phases), Buoyancy - hydrostatic balance with magnetic suspension - two sinkers

CCC [propane]
Settings	mass density
265 K, 2141.2 kPa	542.504 kg/m3
265 K, 2141.4 kPa	542.503 kg/m3
265 K, 2144 kPa	542.507 kg/m3 and 542.508 kg/m3
265 K, 2144.3 kPa	542.51 kg/m3
265 K, 2144.8 kPa	542.509 kg/m3
265 K, 2145 kPa	542.509 kg/m3
265 K, 3759.4 kPa	545.171 kg/m3
265 K, 3760 kPa	545.17 kg/m3
265 K, 3760.5 kPa	545.17 kg/m3
265 K, 3766.3 kPa	545.182 kg/m3
265 K, 3771.8 kPa	545.194 kg/m3
265 K, 4142.6 kPa	545.789 kg/m3
265 K, 4145 kPa	545.794 kg/m3
265 K, 4149.1 kPa	545.797 kg/m3
265 K, 4150.8 kPa	545.802 kg/m3
265 K, 8329.8 kPa	552.117 kg/m3
265 K, 8330.5 kPa	552.12 kg/m3
265 K, 8330.7 kPa	552.117 kg/m3
265 K, 8331.9 kPa	552.121 kg/m3
265 K, 8332.3 kPa	552.121 kg/m3
265 K, 12135 kPa	557.342 kg/m3
265 K, 12136 kPa	557.343 kg/m3
265 K, 12137 kPa	557.343 kg/m3
265 K, 16242 kPa	562.533 kg/m3
265 K, 16243 kPa	562.535 kg/m3
265 K, 16245 kPa	562.537 kg/m3
265 K, 16246 kPa	562.537 kg/m3
265 K, 20184 kPa	567.153 kg/m3 and 567.155 kg/m3
265 K, 20189 kPa	567.157 kg/m3
265 K, 20190 kPa	567.159 kg/m3
265 K, 20191 kPa	567.16 kg/m3
265 K, 24029 kPa	571.368 kg/m3
265 K, 24030 kPa	571.371 kg/m3
265 K, 24031 kPa	571.373 kg/m3 and 571.369 kg/m3
265 K, 30007 kPa	577.453 kg/m3 and 577.455 kg/m3 and 577.457 kg/m3
265 K, 30010 kPa	577.458 kg/m3 and 577.459 kg/m3
265 K, 34915 kPa	582.091 kg/m3
265 K, 34916 kPa	582.091 kg/m3 and 582.092 kg/m3 and 582.09 kg/m3
280 K, 2010.8 kPa	522.313 kg/m3
280 K, 2011 kPa	522.314 kg/m3
280 K, 2012.2 kPa	522.319 kg/m3
280 K, 2013 kPa	522.322 kg/m3
280 K, 2016.3 kPa	522.324 kg/m3
280 K, 2020 kPa	522.336 kg/m3
280 K, 2020.8 kPa	522.337 kg/m3
280 K, 2021.2 kPa	522.338 kg/m3
280 K, 2021.3 kPa	522.335 kg/m3
280 K, 2021.4 kPa	522.337 kg/m3
280 K, 4077.8 kPa	526.538 kg/m3
280 K, 4078.2 kPa	526.542 kg/m3
280 K, 4078.3 kPa	526.539 kg/m3
280 K, 4078.4 kPa	526.539 kg/m3
280 K, 8037.8 kPa	533.834 kg/m3
280 K, 8038.9 kPa	533.835 kg/m3
280 K, 8039.6 kPa	533.833 kg/m3
280 K, 8040 kPa	533.836 kg/m3
280 K, 8040.4 kPa	533.836 kg/m3

— the NIST ThermoML archive (doi:10.1021/je900124n)
